For one data set, the system named is Ri-1 DLBCL cells. Nature of the data set: Cell death assay (Annexin V/7AAD) in Ri-1 DLBCL cells. In kind it is cell-based. The conditions noted are these: 0 nM Compound B, 3 days. As for the experimental part:
(§1) Further, whole blood (WB) autologous B-cell depletion and cell-death induction assays were conducted as described in Mossner et al., Blood 115:4393-402, 2010. For cell death assay: Ri-1 DLBCL cells were seeded at 15,000 cells/well in 96-well plates. Cells were preincubated with Compound B or DMSO for 1 hour before the addition of antibody. Plates were incubated at 37° C. in a humidified CO2 chamber for 3 days. Cells were washed once with PBS and treated with Accutase for 15 minutes before being stained with Guava Nexin® reagent and analyzed on the Guava EasyCyte flow cytometer (Merck Millipore).
After 3 days of incubation, cell death was assessed by Annexin V/7AAD staining.

The test system of a further data set is WIL2-S. Kind of data set: ADCC LDH release assay, purified NK cells against WIL2-S target cells. In kind it is cell-based, human. To be noted: for Percentage of ADCC, Palivizumab ADCC: Palivizumab (isotype control) 10 μg/mL; for Percentage of ADCC, obinutuzumab ADCC: obinutuzumab 10 μg/mL. In general terms: LDH leaks from cells whose membrane has failed.
The next data set has as its system autologous B cells. Nature of the data set: Whole blood (WB) autologous B-cell depletion assay. In kind it is cell-based. As for the experimental part: as §1
The percentage of deplete autologous B cells in a whole blood assay may represent the antibody potency.

The test system of data set [1] is p-AKT Ser473. Kind of data set: Flow cytometry, basal AKT phosphorylation in CD34+ progenitor cells from MF patients. The data set is classed as cell-based, human. To be noted: for effect on p-AKT in MF progenitor cells: basal and TPO-treated, dose dependent. As for the experimental part: (§2) PBMCs were isolated from whole blood of myelofibrosis (MF) patients who had not received treatments (i.e. naïve patients) or received ruxolitinib (i.e. rux-treated patients). The cells were treated with 0.02, 0.2, or 2.0 μM of Compound B or vehicle (0.1% DMSO in 0.1% FBS/RPMI) for 2 hours at 37° C. The cells were then fixed, permeabilized, and stained for FACS analysis. Antibodies specific to p-AKT Ser473 and pS6RP Ser235/236 were used to detect AKT phosphorylation (p-AKT) and S6RP phosphorylation (p-S6RP) in CD34^+/CD3^−/CD14^−/CD19/CD66^− (BD Biosciences) gated cells using flow cytometry. The percentage of basal (i.e. untreated with TPO) AKT and S6RP phosphorylation were normalized to vehicle control. A two-tailed paired t-test (GraphPad Prism) was used to calculate p-values. Values of p<0.05 were considered significant.
(§3) Similar studies were conducted with PI3K inhibitors Compounds C and D. PBMC from MF patients had received ruxolitinib (rux) and MF patient had received Compound A. The cells were treated with Compounds C or D at 0, 20.0, 200.0, 2000.0 nM for 2 hours at 37° C. Cells were treated with TPO for 10 minutes. The percentage of basal p-AKT and p-S6RP levels were normalized to vehicle control and those of TPO-treated were normalized to TPO-treated vehicle control. The PI3Kδ inhibitors Compound C is referred by the chemical names of (S)-2-(1-((9H-purin-6-yl)amino)ethyl)-6-fluoro-3-phenylquinazolin-4(3H)-one.
Background: In flow cytometry, cells or beads pass a laser one at a time.

For data set [2], the system named is pS6RP Ser235/236. Nature of the data set: Flow cytometry, basal S6RP phosphorylation in CD34+ progenitor cells from MF patients. In kind it is cell-based, human. The conditions noted are these: for effect on p-S6RP in MF progenitor cells: basal and TPO-treated, dose dependent. As for the experimental part: as §2, §3
In data set [3] the test system is p-AKT Ser473. Nature of the data set: Flow cytometry, TPO-activated AKT phosphorylation in CD34+ progenitor cells from MF patients. In kind it is cell-based, human. As for the experimental part:
as §2
(§4) Also, PBMC cells from naïve or ruxolitinib treated patients were isolated and treated with Compound B and with TPO as described above. The percentage of TPO-activated AKT and S6RP phosphorylation were normalized to those of TPO-treated vehicle (“no TPO” values in Table 4). […] Also, the inhibition to PI3K signaling was dose-dependent to Compound B.
as §3

In data set [4] the test system is pS6RP Ser235/236. Nature of the data set: Flow cytometry, TPO-activated S6RP phosphorylation in CD34+ progenitor cells from MF patients. The data set is classed as cell-based, human. As for the experimental part:
as §2, §4, §3

Another data set concerns CLL. The conditions noted are these: patients with recurrent CLL; cited from earlier work.
For data set [5] the following is noted: administered once a day; cited from earlier work.
Where [6] appears, read: 20 nM, Compound A-treated Cells.
Where [7] appears, read: 200 nM, Compound A-treated Cells.
The mark [8] stands for this setting: 2000 nM, Compound A-treated Cells.

Where “and” joins values, the source holds several entries; their conditions need not be identical. Identical values can stand only once.

As to “Palivizumab: used as an isotype control [reference compound]”, in the data set with Ri-1 DLBCL cells (Palivizumab 10 μg/mL), the “Percentage of total Annexin V+ cells” value is 13% and 19% and 14% and 21%. Further, the “Percentage of ADCC, Palivizumab ADCC” value with WIL2-S (E:T 1:1) is 3% and 4% and −1% and 2%; with WIL2-S (E:T 3:1), 8% and 11% and 10% and 6% and 4% and 5% and 7%; with WIL2-S (E:T 30:1), 31% and 37% and 36% and 34% and 39% and 25% and 29% and 24%.

For “obinutuzumab: glycoengineered, type II, anti-CD20 antibody”, the “Percentage of total Annexin V+ cells” value was 30% and 36% and 35% and 37% in the data set on Ri-1 DLBCL cells (Obinutuzumab 0.1 μg/mL); 45% and 50% and 49% and 46% in the data set on Ri-1 DLBCL cells (Obinutuzumab 1 μg/mL); 54% and 49% and 56% with Ri-1 DLBCL cells (Obinutuzumab 10 μg/mL). Besides, the “Percentage of B-cell depletion in WB” value in the data set with autologous B cells (obinutuzumab 0.06 ng/mL alone) was −4% and −2% and 0%; with autologous B cells (obinutuzumab 8 ng/mL alone) it was 34% and 38% and 55% and 45%; in the data set on autologous B cells (obinutuzumab 40 ng/mL alone), 43% and 49% and 60% and 65%; with autologous B cells (obinutuzumab 200 ng/mL alone), 50% and 69%; in the data set on autologous B cells (obinutuzumab 1000 ng/mL alone, donors S1-S4), 52% and 63% and 71% and 56%. For the same molecule, in the data set on autologous B cells (obinutuzumab 10 μg/mL, Compound B 0 nM), the “Percentage of B-cell depletion WB” value is 57% and 71% and 65%. The “Percentage of ADCC, obinutuzumab ADCC” value with WIL2-S (E:T 10:1) is 74% and 73% and 69% and 67% and 71%; in the data set on WIL2-S (E:T 30:1), 81% and 72% and 80% and 84% and 69% and 89% and 88%.

For `C[C@H](Nc1ncnc2[nH]cnc12)c1nc2ccccc2c(=O)n1-c1c(F)cccc1F` [Compound D, (S)-2-(1-((9H-purin-6-yl)amino)ethyl)-3-(2,6-difluorophenyl)quinazolin-4(3H)-one], the “effect on p-AKT in MF progenitor cells” value with p-AKT Ser473 [1] was “inhibited”. The “effect on p-S6RP in MF progenitor cells” value in the data set with pS6RP Ser235/236 [2] is listed as “inhibited”.

With `C[C@H](Nc1ncnc2[nH]cnc12)c1nc2ccc(F)cc2c(=O)n1-c1ccccc1` [Compound C, (S)-2-(1-((9H-purin-6-yl)amino)ethyl)-6-fluoro-3-phenylquinazolin-4(3H)-one], the “percentage of pAKT, Basal” value with p-AKT Ser473 [1] (20 nM 2 h, Rux-treated Cells, vehicle=100) stood at 88%; in the data set with p-AKT Ser473 [1] (setting [6]), 89%; in the data set with p-AKT Ser473 [1] (setting [7]) it was 82%; in the data set with p-AKT Ser473 [1] (200 nM, Rux-treated Cells) it was 90%; in the data set on p-AKT Ser473 [1] (setting [8]), 75%; in the data set with p-AKT Ser473 [1] (2000 nM, Rux-treated Cells) it was 75%. Moreover, the “effect on p-AKT in MF progenitor cells” value in the data set with p-AKT Ser473 [1] is listed as “inhibited”. The “percentage of pS6, Basal” value was 82% with pS6RP Ser235/236 [2] (setting [6]); 65% with pS6RP Ser235/236 [2] (20 nM, Rux-treated Cells); 75% with pS6RP Ser235/236 [2] (setting [7]); 59% with pS6RP Ser235/236 [2] (200 nM, Rux-treated Cells); 53% in the data set on pS6RP Ser235/236 [2] (setting [8]); 43% in the data set on pS6RP Ser235/236 [2] (2000 nM, Rux-treated Cells). In the data set with pS6RP Ser235/236 [2], the “effect on p-S6RP in MF progenitor cells” value is listed as “inhibited”. The “percentage of pAKT, TPO” value with p-AKT Ser473 [3] (setting [6]) is 65%; in the data set with p-AKT Ser473 [3] (20 nM, Rux-treated Cells, TPO-treated vehicle=100), 65%; in the data set on p-AKT Ser473 [3] (setting [7]), 59%; with p-AKT Ser473 [3] (200 nM, Rux-treated Cells), 53%; with p-AKT Ser473 [3] (setting [8]), 43%; in the data set on p-AKT Ser473 [3] (2000 nM, Rux-treated Cells), 24%. In addition, the “percentage of pS6, TPO” value in the data set with pS6RP Ser235/236 [4] (setting [6]) was 66%; in the data set with pS6RP Ser235/236 [4] (20 nM, Rux-treated Cells), 84%; in the data set with pS6RP Ser235/236 [4] (setting [7]) it was 70%; in the data set with pS6RP Ser235/236 [4] (200 nM, Rux-treated Cells), 62%; in the data set on pS6RP Ser235/236 [4] (setting [8]), 36%; in the data set with pS6RP Ser235/236 [4] (2000 nM, Rux-treated Cells), 42%.

“ofatumumab: monoclonal antibody, alternative immunotherapeutic for CLL”: in the data set with CLL, the “median progression-free survival (PFS)” value is 5.8 months.

As for `Cc1cnc(Nc2ccc(OCCN3CCCC3)cc2)nc1Nc1cccc(S(=O)(=O)NC(C)(C)C)c1` [TG101348], in data set [5], the “maximum tolerated dose (MTD)” value was 680 mg/day.

Consider “alemtuzumab: monoclonal antibody, alternative immunotherapeutic for CLL”, for which, in the data set on CLL, the “median progression-free survival (PFS)” value is on record as 4.7 months.

The record behind these values is patent publication US20160331754A1, “THERAPIES FOR TREATING CANCERS” (GILEAD SCIENCES, INC., priority 2014, published 2016).
